Patent publication US20230181522A1, “SOLID AND LIQUISOLID FORMULATIONS OF CORALLOPYRONIN A” (RHEINISCHE FRIEDRICH-WILHELMS-UNIVERSITÄT BONN, priority 2020, published 2023)

Legend:
[1] = Biphasic dissolution test (BiPHa+); format: physicochemical; details: organic phase 1-decanol
Text: To simulate the gastrointestinal properties to obtain in vivo predictive results, the pH-profile, bile salt concentration and gastrointestinal passage time were adjusted in the aqueous phase to mimic human gut conditions. […] An organic phase of 1-decanol above the aqueous phase imitated the fraction absorbed from the gut. As a test model, the profile of a person without prior food intake was chosen. Therefore, FaSSIF-V2 medium, which represents the bile salts concentration of a fasted human was used. […] To generate an in-situ biorelevant aqueous medium for the fasted state, biorelevant surfactants, namely sodium-taurocholate (3 mM) and lecithin (0.2 mM), were added.
Prior to the start of the experiments, both phases, 1-decanol and the acidic aqueous phase, were saturated with each other.
After 30 min FaSSIF-V2 concentrate (sodium-taurocholate and lecithin) was added simultaneously to the addition of citrate-phosphate buffer (tri-potassium phosphate and potassium citrate) resulting in a first pH-shift from pH 1 to pH 5.5, simulating the duodenum. […] The adjusted buffers were titrated by 0.1 M NaOH and 0.1 M HCl (pH 5.5-6.8). The whole dissolution took 4.5 hours.

[2] = Pharmacokinetic analysis in vivo in BALB/c mice; design: species or system BALB/c female mice; details: PO, Example 13, compared to IV set to 100%
Protocol: Pharmacokinetic analysis was performed in vivo in fed BALB/c female mice (n=4) (Study DZIF11). The solid formulation was suspended right before administration in PBS (phosphate buffered saline; pH=7.4) and was administered via gavage (36 mg/kg CorA, 10 mL/kg). Blood samples from the vena facialis were collected after 5, 10, 15, 30, 180, and 480 min. The samples were centrifuges for 10 min at 4° C. and 15000 g. The generated plasma was mixed in a ration of 1:3 with ice-cold acetonitrile (Bernd Kraft GmbH, Duisburg). The mixture was vortexed for 10 sec and centrifuged for 25 min at 4° C. and 11600 g. […] For the gradient method starting from 70% A/30% B to 20% A/80% B stepwise within 30 min, the mobile phases A (acetonitrile/water (Bernd Kraft GmbH, Duisburg) 5/95 with 5 mM ammonium acetate (Merck KGaA, Darmstadt) and 40 μL acetic acid (Sigma-Aldrich Chemie GmbH, Steinheim) per Liter) and B (acetonitrile/water 95/5 with 5 mM ammonium acetate and 40 μL acetic acid per Liter) enabled to quantitate corallopyronin A precisely at 300 nm at a flow rate of 0.3 mL/min and a column temperature of 30° C. The samples were quantitated via external reference standard. The content of the corallopyronin A reference material was analyzed by ^1H-NMR.
Plasma concentration-time profiles were generated and pharmacokinetic parameters calculated. […]

[3] = Stability analysis (storage, CorA content by HPLC-DAD); format: physicochemical
Protocol: The stability of the spray dried amorphous formulation of corallopyronin A embedded in polyvinylpyrrolidone was analyzed after storing samples in drying cabinets at 25° C./60% relative humidity (RH) and under accelerated conditions at 40° C./75% RH for 7, 14, 28 days and 3 months. The samples were stored in closed twist-off glass vials under nitrogen and in the presence of silica desiccant. The content was analyzed by High-Performance Liquid Chromatography with Diode-Array Detection (HPLC-DAD). The samples were, therefore, dissolved in acetonitrile (Bernd Kraft GmbH, Duisburg). The HPLC measurements were performed on a Waters Alliance e2695 separation module connected to a waters 2998 PDA detector. A waters XBridge® Shield RP18, 3.5 μm, 2.1×100 mm, 130 A column was used. For the gradient method starting from 70% A/30% B to 20% A/80% B stepwise within 30 min, the mobile phases A (acetonitrile/water (Bernd Kraft GmbH, Duisburg) 5/95 with 5 mM ammonium acetate (Merck KGaA, Darmstadt) and 40 μL acetic acid (Sigma-Aldrich Chemie GmbH, Steinheim) per Liter) and B (acetonitrile/water 95/5 with 5 mM ammonium acetate and 40 μL acetic acid per liter) enabled to quantitate corallopyronin A precisely at 300 nm at a flow rate of 0.3 mL/min and a column temperature of 30° C. The samples were quantitated via external reference standard. The content of the corallopyronin A reference material was analyzed by ^1H-NMR. The following table 2 summarizes the results of the stability analysis.

[4] = Solubility of corallopyronin A in ethanol; format: physicochemical

methyl N-[(E)-5-[6-hydroxy-5-[(2E,4E,9Z,13E)-8-hydroxy-2,5,9-trimethylpentadeca-2,4,9,13-tetraenoyl]-4-oxopyran-2-yl]hex-1-enyl]carbamate [CorA]
predicted absorption ([1]; FaSSIF-V2 fasted human, pH 1 to 5.5 to 6.8, 4.5 hours, about 10 mg CorA): 7.7%
Maximum Partitioned Drug in the Organic Phase (%) ([1]; fasted human gut conditions, 4.5 h): 8%
Absolute Bioavailability [2]: 11%
CorA Content ([3]; 3 months, 25° C., 60% RH, listed as Corallopyronin A): 39%
CorA Content ([3]; 3 months, 25° C., 60% RH, listed as corallopyronin A): below 40%
CorA Content ([3]; 3 months, 40° C., 75% RH, listed as Corallopyronin A): 6%
CorA Content ([3]; 3 months, 40° C., 75% RH, listed as corallopyronin A): below 10%
CorA Content ([3]; 7 days, 25° C., 60% RH, listed as Corallopyronin A): 85%
CorA Content ([3]; 7 days, 25° C., 60% RH, listed as corallopyronin A): below 90%
CorA Content ([3]; 7 days, 40° C., 75% RH, listed as Corallopyronin A): 47%
CorA Content ([3]; 7 days, 40° C., 75% RH, listed as corallopyronin A): below 50%
CorA Content ([3]; 14 days, 25° C., 60% RH): 76%
CorA Content ([3]; 14 days, 40° C., 75% RH): 31%
CorA Content ([3]; 28 days, 25° C., 60% RH): 63%
CorA Content ([3]; 28 days, 40° C., 75% RH): 17%
CorA Content ([3]; storage duration 0): 99%
amount that can be dissolved in ethanol [4]: 100 mg/mL
